According to ChEMBL document CHEMBL1201862, “PubChem BioAssay data set” (2004):
Each block holds one compound with its values, some of them ahead of it. Activity calls are given as the source filed them.

Assays:
[1] = molecular target: T1, Calpain-2 catalytic subunit (Sus scrofa, UniProt P43367); test: pig calpain II inhibitor potency, dose response, biochemical, fluorogenic peptide substrate (AID 1420); type: functional
T1 sequence (P43367 whole entry): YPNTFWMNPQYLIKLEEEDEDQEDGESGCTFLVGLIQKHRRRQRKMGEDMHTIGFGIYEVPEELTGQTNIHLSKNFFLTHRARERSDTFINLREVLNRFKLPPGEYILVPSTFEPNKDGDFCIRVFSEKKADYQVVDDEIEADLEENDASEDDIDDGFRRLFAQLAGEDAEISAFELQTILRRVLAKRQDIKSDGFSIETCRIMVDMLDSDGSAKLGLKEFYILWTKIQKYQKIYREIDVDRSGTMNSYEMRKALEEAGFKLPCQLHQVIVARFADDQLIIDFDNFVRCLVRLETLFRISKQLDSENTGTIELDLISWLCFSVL

[2] = Vero cell cytotoxicity, dose response, cytotoxicity control for Vif-APOBEC3G degradation inhibitor project, Vero cells (AID 1117358); type: functional; conditions: Human immunodeficiency virus 1, Vero
[3] = tested on: Vero; test: host cell cytotoxicity of antiviral hits, dose response, cytotoxicity control for West Nile virus antiviral project, secondary assay (AID 1650); type: functional; conditions: Chlorocebus sabaeus
[4] = tested on: HEK293; test: cells; type: functional, cell-based; conditions: Homo sapiens
[5] = molecular target: T2, Nuclear receptor subfamily 0 group B member 1 (Homo sapiens, UniProt P51843); test: Luminescence-based cell-based high throughput dose response assay for inhibitors of the orphan nuclear receptor subfamily 0, group B, member 1 (DAX1; NR0B1). [Related pubchem assays (depositor defined):AID504766, AID504790]; type: functional
T2 sequence (P51843 whole entry): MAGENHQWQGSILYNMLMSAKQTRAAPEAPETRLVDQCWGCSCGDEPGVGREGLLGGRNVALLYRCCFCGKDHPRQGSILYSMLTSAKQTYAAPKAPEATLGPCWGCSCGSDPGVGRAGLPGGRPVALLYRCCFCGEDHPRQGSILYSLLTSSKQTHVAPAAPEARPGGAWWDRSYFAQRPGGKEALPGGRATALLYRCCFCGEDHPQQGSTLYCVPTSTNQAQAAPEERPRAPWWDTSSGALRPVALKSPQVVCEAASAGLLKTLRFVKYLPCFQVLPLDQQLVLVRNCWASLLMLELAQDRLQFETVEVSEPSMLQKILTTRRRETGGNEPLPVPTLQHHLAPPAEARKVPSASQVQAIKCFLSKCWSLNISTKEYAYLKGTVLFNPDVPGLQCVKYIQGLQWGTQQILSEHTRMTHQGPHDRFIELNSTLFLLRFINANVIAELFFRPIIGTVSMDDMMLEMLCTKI

[6] = molecular target: T3, DNA repair and recombination protein RAD54-like (Homo sapiens, UniProt Q92698); test: inhibitors of human RAD54 branch migration, confirmation, biochemical, fluorescence, cherry-picked samples, dose series (AID 651657); type: functional
T3 sequence (Q92698 whole entry): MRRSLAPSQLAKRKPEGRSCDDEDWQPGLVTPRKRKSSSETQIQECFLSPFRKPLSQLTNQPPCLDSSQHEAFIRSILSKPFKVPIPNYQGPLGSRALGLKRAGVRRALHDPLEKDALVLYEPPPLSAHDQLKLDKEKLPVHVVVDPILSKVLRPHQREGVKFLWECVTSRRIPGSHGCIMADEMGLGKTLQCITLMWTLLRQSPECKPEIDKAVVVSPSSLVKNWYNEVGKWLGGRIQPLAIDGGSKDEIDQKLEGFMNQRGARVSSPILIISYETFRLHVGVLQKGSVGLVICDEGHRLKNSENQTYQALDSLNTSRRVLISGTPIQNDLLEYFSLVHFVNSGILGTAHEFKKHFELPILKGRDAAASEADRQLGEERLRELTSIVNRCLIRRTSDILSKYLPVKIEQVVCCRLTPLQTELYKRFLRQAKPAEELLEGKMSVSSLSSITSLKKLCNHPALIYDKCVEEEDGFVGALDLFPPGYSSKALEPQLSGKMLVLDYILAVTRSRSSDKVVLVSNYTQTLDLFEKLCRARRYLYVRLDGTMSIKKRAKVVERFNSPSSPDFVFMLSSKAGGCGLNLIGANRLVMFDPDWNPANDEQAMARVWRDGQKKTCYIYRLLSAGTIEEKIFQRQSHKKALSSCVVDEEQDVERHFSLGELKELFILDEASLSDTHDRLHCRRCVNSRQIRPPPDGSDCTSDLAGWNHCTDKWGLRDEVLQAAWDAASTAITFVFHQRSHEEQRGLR

[7] = molecular target: T4, DNA repair protein RAD52 homolog (Homo sapiens, UniProt P43351); type: functional, biochemical
T4 sequence (P43351 whole entry): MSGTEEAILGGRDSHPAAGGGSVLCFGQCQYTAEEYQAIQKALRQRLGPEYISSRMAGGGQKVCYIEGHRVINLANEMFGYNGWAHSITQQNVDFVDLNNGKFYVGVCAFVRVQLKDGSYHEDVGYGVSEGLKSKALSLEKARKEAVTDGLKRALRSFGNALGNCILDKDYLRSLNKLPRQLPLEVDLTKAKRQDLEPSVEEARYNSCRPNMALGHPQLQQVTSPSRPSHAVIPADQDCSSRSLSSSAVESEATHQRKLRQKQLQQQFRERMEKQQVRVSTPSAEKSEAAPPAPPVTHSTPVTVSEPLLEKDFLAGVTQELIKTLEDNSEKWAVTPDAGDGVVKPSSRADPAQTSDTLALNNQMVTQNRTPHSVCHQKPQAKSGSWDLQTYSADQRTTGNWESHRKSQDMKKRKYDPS

[8] = molecular target: E3 ubiquitin-protein ligase UHRF1 (Homo sapiens, UniProt Q96T88); test: Counterscreen for inhibitors of 5-meCpG-binding domain protein 2 (MBD2): TRFRET-based biochemical high throughput dose response assay to identify inhibitors of binding of ubiquitin-like with PHD and ring finger domains 1 (UHRF1) to methylated oligonucleotide.
Sequence of E3 ubiquitin-protein ligase UHRF1 (Q96T88 whole entry, the tested form may be a part): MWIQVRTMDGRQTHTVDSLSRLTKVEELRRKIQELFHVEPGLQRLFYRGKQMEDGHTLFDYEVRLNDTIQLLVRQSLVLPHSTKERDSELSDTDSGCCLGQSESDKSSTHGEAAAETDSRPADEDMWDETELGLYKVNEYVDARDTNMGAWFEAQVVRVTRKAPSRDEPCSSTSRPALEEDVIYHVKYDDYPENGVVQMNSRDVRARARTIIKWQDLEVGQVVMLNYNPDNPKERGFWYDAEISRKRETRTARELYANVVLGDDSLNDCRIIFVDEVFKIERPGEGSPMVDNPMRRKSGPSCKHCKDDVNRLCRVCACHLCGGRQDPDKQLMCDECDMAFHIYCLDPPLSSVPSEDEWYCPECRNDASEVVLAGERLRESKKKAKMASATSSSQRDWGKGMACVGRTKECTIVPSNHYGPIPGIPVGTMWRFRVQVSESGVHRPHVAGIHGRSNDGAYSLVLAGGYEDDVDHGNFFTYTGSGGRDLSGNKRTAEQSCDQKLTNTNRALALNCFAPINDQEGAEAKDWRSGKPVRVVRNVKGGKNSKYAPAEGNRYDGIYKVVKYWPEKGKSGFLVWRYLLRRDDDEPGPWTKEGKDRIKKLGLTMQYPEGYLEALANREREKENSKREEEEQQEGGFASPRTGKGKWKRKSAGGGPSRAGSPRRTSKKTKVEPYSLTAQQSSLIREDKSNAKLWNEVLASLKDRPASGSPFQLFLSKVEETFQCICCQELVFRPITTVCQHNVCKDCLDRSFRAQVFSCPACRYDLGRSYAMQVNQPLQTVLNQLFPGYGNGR

[9] = molecular target: Induced myeloid leukemia cell differentiation protein Mcl-1 (Homo sapiens, UniProt Q07820); type: functional
Sequence of Induced myeloid leukemia cell differentiation protein Mcl-1 (Q07820 whole entry): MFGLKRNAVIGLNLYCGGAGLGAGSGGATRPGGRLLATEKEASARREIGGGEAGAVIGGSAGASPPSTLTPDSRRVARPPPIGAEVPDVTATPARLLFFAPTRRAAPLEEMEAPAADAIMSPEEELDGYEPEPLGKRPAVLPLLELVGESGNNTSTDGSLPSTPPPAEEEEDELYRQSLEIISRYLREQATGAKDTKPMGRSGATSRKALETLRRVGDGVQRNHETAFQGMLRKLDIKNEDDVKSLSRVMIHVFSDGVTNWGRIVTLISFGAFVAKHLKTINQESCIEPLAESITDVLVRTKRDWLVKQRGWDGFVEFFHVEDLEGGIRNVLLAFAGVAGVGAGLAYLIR

[10] = molecular target: T5, Polyadenylate-binding protein 1 (Homo sapiens, UniProt P11940); test: PABP1 MLLE–PAM2 interaction inhibitors, dose response, miRNA deadenylation inhibitor project, biochemical, fluorescence polarization, Cy5-PAM2 peptide, secondary (AID 602260); type: functional; conditions: read-out: IC50_Mean
T5 sequence (P11940 whole entry): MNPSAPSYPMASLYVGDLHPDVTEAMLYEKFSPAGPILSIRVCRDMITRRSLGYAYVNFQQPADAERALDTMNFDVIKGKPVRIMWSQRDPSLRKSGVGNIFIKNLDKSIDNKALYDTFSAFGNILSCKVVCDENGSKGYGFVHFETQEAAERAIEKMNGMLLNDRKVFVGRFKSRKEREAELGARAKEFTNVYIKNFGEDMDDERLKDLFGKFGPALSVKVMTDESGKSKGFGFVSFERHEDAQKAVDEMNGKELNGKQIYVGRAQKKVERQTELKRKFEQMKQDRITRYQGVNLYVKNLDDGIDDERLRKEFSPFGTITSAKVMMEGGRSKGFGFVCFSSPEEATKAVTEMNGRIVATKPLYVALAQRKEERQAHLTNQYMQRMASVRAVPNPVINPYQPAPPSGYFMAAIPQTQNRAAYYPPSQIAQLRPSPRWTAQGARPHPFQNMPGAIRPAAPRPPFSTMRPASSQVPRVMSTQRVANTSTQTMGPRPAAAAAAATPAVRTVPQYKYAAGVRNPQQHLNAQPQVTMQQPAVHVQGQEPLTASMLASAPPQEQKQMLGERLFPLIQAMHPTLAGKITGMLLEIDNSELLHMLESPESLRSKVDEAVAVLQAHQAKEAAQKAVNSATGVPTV

[11] = molecular target: T5, Polyadenylate-binding protein 1; test: PABP1 MLLE–PAM2 binding inhibitor potency, dose response, biochemical, fluorescence polarization, FITC-PAM2 peptide (AID 602259); type: functional; conditions: read-out: IC50_Mean
[12] = molecular target: T6, Rac GTPase-activating protein 1 (Homo sapiens, UniProt Q9H0H5); test: MgcRacGAP GTPase-activating activity inhibitors, confirmation, biochemical, ADP Hunter fluorescence, primary and confirmatory (AID 624330); type: functional
T6 sequence (Q9H0H5 whole entry): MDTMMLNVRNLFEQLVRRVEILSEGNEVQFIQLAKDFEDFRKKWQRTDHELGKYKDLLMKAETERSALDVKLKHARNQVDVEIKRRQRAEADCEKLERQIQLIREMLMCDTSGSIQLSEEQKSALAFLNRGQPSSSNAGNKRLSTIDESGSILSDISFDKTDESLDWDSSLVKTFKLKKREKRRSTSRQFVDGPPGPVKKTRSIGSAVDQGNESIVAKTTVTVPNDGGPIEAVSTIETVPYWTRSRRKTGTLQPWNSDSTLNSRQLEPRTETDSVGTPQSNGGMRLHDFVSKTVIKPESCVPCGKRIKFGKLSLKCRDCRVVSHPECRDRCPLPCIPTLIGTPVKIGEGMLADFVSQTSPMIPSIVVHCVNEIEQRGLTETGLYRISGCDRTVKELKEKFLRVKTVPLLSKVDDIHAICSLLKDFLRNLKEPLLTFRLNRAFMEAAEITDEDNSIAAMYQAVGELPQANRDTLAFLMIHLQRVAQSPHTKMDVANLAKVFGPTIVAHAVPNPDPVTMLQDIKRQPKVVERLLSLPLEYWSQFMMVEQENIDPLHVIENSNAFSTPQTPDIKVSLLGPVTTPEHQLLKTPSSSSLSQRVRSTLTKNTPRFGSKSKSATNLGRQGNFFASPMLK

[13] = Artemis endonuclease inhibitor potency, dose response, biochemical, fluorescence intensity (AID 720701); type: functional;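 note: Artemis endonuclease enzyme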
[14] = molecular target: Glutathione-S-transferase (Schistosoma japonicum, UniProt Q26513); test: biotin-GST/anti-GST TR-FRET signal inhibitors, dose response, artefact control for Vif-APOBEC3G degradation inhibitor project, biochemical (AID 1117362); type: functional
Sequence of Glutathione-S-transferase (Q26513 whole entry): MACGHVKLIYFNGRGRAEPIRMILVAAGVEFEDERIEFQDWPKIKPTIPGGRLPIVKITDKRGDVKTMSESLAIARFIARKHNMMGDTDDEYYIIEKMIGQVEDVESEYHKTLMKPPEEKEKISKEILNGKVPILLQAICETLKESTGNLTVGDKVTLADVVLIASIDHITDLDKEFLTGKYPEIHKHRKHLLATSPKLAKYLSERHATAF

[15] = molecular target: Phospholipase D2 (Homo sapiens, UniProt O14939); test: PLD2 Cellular Concentration Response Study.; type: functional
Sequence of Phospholipase D2 (O14939 whole entry): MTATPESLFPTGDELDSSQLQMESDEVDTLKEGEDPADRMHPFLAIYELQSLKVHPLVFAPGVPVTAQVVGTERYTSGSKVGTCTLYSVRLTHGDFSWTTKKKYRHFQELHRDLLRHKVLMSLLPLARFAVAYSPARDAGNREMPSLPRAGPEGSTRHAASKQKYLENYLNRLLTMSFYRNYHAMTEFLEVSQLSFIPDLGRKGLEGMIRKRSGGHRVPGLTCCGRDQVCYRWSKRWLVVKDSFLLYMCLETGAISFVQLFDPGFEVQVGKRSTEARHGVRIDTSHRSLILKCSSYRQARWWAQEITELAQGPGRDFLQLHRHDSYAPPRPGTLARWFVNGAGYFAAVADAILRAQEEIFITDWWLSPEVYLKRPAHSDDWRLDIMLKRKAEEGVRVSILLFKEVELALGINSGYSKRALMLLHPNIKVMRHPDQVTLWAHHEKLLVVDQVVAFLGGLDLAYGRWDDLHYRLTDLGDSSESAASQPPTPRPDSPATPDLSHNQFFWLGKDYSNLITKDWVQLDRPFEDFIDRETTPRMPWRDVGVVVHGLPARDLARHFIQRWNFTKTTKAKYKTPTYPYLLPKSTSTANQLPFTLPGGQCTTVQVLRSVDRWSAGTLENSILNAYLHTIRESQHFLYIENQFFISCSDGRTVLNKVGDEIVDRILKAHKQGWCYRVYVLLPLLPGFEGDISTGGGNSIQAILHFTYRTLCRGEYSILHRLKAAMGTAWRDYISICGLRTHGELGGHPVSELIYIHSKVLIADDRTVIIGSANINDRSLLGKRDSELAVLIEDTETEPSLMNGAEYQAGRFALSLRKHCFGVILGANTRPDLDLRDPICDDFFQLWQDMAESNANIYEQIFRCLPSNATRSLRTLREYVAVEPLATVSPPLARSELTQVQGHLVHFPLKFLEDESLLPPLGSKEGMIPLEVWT

[16] = molecular target: Phospholipase D1 (Homo sapiens, UniProt Q13393); test: PLD1 Cellular Concentration Response Study.; type: functional
Sequence of Phospholipase D1 (Q13393 whole entry): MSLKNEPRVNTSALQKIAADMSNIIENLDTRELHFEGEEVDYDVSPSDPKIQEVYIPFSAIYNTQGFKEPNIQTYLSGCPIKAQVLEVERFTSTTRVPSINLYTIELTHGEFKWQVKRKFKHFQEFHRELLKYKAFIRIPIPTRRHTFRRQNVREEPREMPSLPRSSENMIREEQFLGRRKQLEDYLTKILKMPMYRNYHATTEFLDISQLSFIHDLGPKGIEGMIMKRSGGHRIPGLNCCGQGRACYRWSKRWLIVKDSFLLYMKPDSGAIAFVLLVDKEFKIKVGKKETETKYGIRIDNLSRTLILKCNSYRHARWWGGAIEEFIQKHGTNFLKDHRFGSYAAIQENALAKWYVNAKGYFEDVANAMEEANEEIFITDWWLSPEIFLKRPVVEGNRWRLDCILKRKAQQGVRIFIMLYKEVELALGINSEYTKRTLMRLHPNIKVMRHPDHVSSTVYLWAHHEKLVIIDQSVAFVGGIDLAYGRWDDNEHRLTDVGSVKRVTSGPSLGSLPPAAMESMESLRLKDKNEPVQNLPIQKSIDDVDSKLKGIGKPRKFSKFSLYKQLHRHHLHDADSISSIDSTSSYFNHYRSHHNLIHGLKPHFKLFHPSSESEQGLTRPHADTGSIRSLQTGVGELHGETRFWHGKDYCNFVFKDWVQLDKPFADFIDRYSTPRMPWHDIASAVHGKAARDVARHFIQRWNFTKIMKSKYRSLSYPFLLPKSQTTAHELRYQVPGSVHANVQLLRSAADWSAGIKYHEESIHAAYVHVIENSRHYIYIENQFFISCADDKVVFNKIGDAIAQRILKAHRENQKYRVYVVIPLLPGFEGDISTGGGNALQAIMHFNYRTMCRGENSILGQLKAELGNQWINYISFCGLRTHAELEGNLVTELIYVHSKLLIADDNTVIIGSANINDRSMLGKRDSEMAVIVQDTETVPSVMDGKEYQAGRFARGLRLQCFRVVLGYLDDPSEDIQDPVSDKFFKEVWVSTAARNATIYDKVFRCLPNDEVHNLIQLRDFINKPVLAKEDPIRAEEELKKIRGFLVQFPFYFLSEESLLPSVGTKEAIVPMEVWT

[17] = P. falciparum 3D7-ScDHODH growth inhibitors, dose response, SYBR Green, dry powder samples (AID 1159570); type: functional, cell-based;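 note: parasite growth measured after 72 hours of compound exposure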
[18] = P. falciparum Dd2 growth inhibitors, dose response, SYBR Green, cherry-picked samples (AID 1159567); type: functional, cell-based
[19] = P. falciparum Dd2 blood-stage growth inhibition, dose response, SYBR Green fluorescence, erythrocytes, dry powder, set 2 (AID 1159574); type: functional, cell-based
[20] = P. falciparum Dd2 growth inhibitors, dose response, SYBR Green, dry powder samples (AID 1159566); type: functional, cell-based;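 note: potency for growth inhibition with lower SYBR green DNA signal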
[21] = P. falciparum ATP4 D1247Y mutant growth inhibitors, dose response, NITD609-resistant line, SYBR Green, dry powder (AID 1159571); type: functional, cell-based;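 note: parasites synchronized at ring stage by sorbitol before testing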
[22] = half-maximal inhibitory concentration for glucagon-like peptide-1 release, STC-1 cell line, dose-response (AID 1117345); type: functional, cell-based
[23] = Glucagon-like peptide 1 release potency, NCI-H716 cell line, dose-response, half-maximal inhibitory concentration (AID 1117344); type: functional, cell-based
[24] = molecular target: T7, Low molecular weight phosphotyrosine protein phosphatase (Homo sapiens, UniProt P24666); test: LMPTP phosphatase inhibitors, dose response, biochemical, OMFP substrate, fluorescence intensity, set 2 (AID 743307); type: functional
T7 sequence (P24666 whole entry): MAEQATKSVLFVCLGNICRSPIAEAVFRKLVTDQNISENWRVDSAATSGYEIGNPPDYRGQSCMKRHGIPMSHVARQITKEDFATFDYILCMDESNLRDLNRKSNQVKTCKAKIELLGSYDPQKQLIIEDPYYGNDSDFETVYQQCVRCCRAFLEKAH

[25] = molecular target: T7, Low molecular weight phosphotyrosine protein phosphatase; test: LMPTP phosphatase inhibitors, colorimetric pNPP readout, dose response, orthogonal assay, biochemical, absorbance, pNPP substrate, LMPTP-A isoform, set 2 (AID 743308); type: functional
[26] = molecular target: G-protein coupled receptor 183 (Homo sapiens, UniProt P32249); test: SAR confirmation of small molecule antagonists of the EBI2 receptor via a luminescent beta-arrestin assa.; type: functional
Sequence of G-protein coupled receptor 183 (P32249 whole entry): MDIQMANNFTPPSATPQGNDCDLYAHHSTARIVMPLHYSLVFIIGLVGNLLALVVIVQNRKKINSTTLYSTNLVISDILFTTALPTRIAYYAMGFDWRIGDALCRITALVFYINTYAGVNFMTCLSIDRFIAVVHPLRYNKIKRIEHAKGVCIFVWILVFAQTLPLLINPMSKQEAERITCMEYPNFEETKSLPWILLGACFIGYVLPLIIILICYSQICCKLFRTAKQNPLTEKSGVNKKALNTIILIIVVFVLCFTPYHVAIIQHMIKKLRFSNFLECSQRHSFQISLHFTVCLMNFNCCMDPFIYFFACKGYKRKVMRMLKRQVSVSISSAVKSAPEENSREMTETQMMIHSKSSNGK

[27] = HepG2 cell cytotoxicity, dose response, cytotoxicity control, cherry-picked samples (AID 1159577); type: functional, cell-based

IC50 [1]: > 50 µM (not active)
SMILES: Cc1cc(-c2ccccc2)nc(Oc2ccc(C(C)(C)C)cc2)c1S(C)(=O)=O
CC50 [2]: > 40 µM (active)

SMILES: CCOC(=O)c1cnc2c(ccc3ccccc32)c1NCCCN(C)C
CC50 [3]: > 100 µM (active)
IC50 [4]: > 67.5 µM (inactive)
IC50 [5]: > 67.5 µM (inactive)
AC50 [6]: 3.38 µM (active)
AC50 [7]: 1.38 µM (active)
IC50 [8]: 35.7 µM (inactive)

SMILES: COc1ccc2c3c(cccc13)N(C)N=C2C
IC50 [9]: 1.33 µM (active)
IC50 [10]: > 66 µM (inactive)
IC50 [11]: > 66 µM (inactive)
IC50 [12]: 34.4 µM (active)
IC50 [13]: > 20 µM (inactive)
IC50 [14]: 36.6 µM (active)

SMILES: O=C(NCCN1CCC2(CC1)C(=O)NCN2Cc1ccccc1F)c1ccc2ccccc2c1
IC50 [15]: 0.2 µM (active)
IC50 [16]: 4.59 µM (active)

SMILES: O=C(c1ccccc1F)N1CC(=O)N2[C@H](C1)[C@@H](c1ccc(-c3cccnc3)cc1)[C@@H]2CO
AC50 [17]: 0.0369 µM (active)
AC50 [18]: < 0.3 µM (active)
AC50 [19]: 0.0331 µM (active)
AC50 [20]: 0.00824 µM (active)
AC50 [21]: 0.0146 µM (active)

SMILES: CCCCCCCCCCCCCCNCCO
IC50 [22]: > 20 µM (inactive)
IC50 [23]: 13.6 µM (inactive)

IC50 [24]: 15 µM (active)
IC50 [25]: 35.8 µM (inactive)
SMILES: CC(C)Nc1nc(-c2ccccc2)nc2ccccc12

IC50 [26]: 0.00548 µM (active)
SMILES: O=C(/C=C/c1ccc(F)cc1)N1CCN(S(=O)(=O)c2ccc(Cl)cc2)CC1

SMILES: N#C[C@@H]1[C@H](c2ccc(C#Cc3ccccc3F)cc2)[C@H](CO)N1C(=O)C1CCCC1
AC50 [18]: 3.48 µM (active)
AC50 [27]: > 39 µM (inactive)
